In brackets after ≈: the same amount, converted by molar mass.
Columns and labels:
MCF7 [1] = experiment: Antiproliferative activity against human MCF7 cells after 48 hrs by SRB assay; format: functional, cell-based
[2] = Antiproliferative activity against human HSC3 cells; format: functional, cell-based; conditions: HSC-3
M21 = experiment: Antiproliferative activity against human M21 cells; format: functional, cell-based
[3] = Antiproliferative activity against human Hep3B cells; format: functional, cell-based, Hep 3B2
[4] = Antiproliferative activity against human H460 cells; format: functional, cell-based; conditions: NCI-H460
[5] = Antiproliferative activity against human CH27 cells; format: functional, cell-based
MCF7 [6] = experiment: Antiproliferative activity against human MCF7 cells
[7] = target: Vascular endothelial growth factor receptor 2 (Homo sapiens, UniProt P35968); experiment: Inhibition of VEGFR2 (unknown origin)
[8] = system: Mycobacterium tuberculosis; experiment: Antitubercular activity against Mycobacterium tuberculosis H37Rv assessed as growth inhibition; format: functional
[9] = Antiproliferative activity against human PC3 cells by MTT assay; format: functional, cell-based; conditions: PC-3
Staphylococcus aureus = experiment: Antibacterial activity against Staphylococcus aureus MTCC 96 assessed as growth inhibition at 100 ug/ml by agar well diffusion method; format: functional; conditions: read-out: GI
[10] = system: Staphylococcus epidermidis; experiment: Antibacterial activity against Staphylococcus epidermidis MTCC 435 assessed as growth inhibition at 100 ug/ml by agar well diffusion method; format: functional; conditions: read-out: GI
Escherichia coli = experiment: Antibacterial activity against Escherichia coli MTCC 443 assessed as growth inhibition at 100 ug/ml by agar well diffusion method; format: functional; conditions: read-out: GI
Pseudomonas aeruginosa = experiment: Antibacterial activity against Pseudomonas aeruginosa MTCC 741 assessed as growth inhibition at 100 ug/ml by agar well diffusion method; format: functional; conditions: read-out: GI
RAW264.7 = experiment: Antiinflammatory activity in mouse RAW264.7 cells assessed as inhibition of LPS-induced nitric oxide production at 20 ug/ml after 24 hrs by Griess method; format: functional; conditions: RAW264.7, 24 h
[11] = Inhibition of Mycobacterium tuberculosis GlmU
Rattus norvegicus = experiment: Antiinflammatory activity in rat assessed as inhibition of carrageenan-induced paw edema at 25 to 200 mg/kg, po administered 1 hr before carrageenan challenge measured at 6 hrs; format: functional; parameters: scale not given: the % may be the effect or the level left; conditions: dose mg/kg 25-200
MCF7 [12] = experiment: Potency index, ratio of cisplatin IC50 to compound IC50 for human MCF7 cells; format: functional
HepG2 = experiment: Cytotoxicity against human HepG2 cells assessed as cell viability after 24 hrs by MTT assay; format: functional, cell-based; conditions: HepG2, 24 h
[13] = Cytotoxicity against human HCT116 cells assessed as cell viability after 24 hrs by MTT assay; format: functional, cell-based; conditions: HCT-116, 24 h
[14] = Antiproliferative activity against human NCI60 cells; format: functional
[15] = Antiproliferative activity against human BGC823 cells at 10 uM by MTT assay; format: functional; conditions: BGC-823
Bcap37 [16] = experiment: Antiproliferative activity against human Bcap37 cells by MTT assay; format: functional, cell-based
PC-3 [17] = experiment: Induction of apoptosis in human PC3 cells at 1 uM after 72 hrs by Hoechst 33258 staining; format: functional
Bcap37 [18] = experiment: Antiproliferative activity against human Bcap37 cells at 10 uM by MTT assay; format: functional
PC-3 [19] = experiment: Induction of apoptosis in human PC3 cells at 10 uM after 72 hrs by Hoechst 33258 staining; format: functional
[20] = Antiproliferative activity against human BGC823 cells by MTT assay; format: functional, cell-based; conditions: BGC-823
[21] = Antiproliferative activity against human PC3 cells at 10 uM by MTT assay; format: functional; conditions: PC-3
A549 = experiment: Antiproliferative activity against human A549 cells; format: functional, cell-based
[22] = target: Proto-oncogene tyrosine-protein kinase Src (Homo sapiens, UniProt P12931); experiment: Inhibition of c-Src (unknown origin)
[23] = Protective index, ratio of neurotoxicity in mouse by rotarod test to ED50 for inhibition of maximal electroshock-induced seizures in mouse; format: toxicity, organism-based; conditions: in vivo, read-out: PI
SNB-75 = experiment: Growth inhibition of human SNB75 cells after 48 hrs by SRB assay; format: functional; conditions: SNB-75, 48 h
[24] = Inhibition of alpha-glucosidase (unknown origin); parameters: species or system Homo sapiens

Chain of Vascular endothelial growth factor receptor 2 (P35968 whole entry): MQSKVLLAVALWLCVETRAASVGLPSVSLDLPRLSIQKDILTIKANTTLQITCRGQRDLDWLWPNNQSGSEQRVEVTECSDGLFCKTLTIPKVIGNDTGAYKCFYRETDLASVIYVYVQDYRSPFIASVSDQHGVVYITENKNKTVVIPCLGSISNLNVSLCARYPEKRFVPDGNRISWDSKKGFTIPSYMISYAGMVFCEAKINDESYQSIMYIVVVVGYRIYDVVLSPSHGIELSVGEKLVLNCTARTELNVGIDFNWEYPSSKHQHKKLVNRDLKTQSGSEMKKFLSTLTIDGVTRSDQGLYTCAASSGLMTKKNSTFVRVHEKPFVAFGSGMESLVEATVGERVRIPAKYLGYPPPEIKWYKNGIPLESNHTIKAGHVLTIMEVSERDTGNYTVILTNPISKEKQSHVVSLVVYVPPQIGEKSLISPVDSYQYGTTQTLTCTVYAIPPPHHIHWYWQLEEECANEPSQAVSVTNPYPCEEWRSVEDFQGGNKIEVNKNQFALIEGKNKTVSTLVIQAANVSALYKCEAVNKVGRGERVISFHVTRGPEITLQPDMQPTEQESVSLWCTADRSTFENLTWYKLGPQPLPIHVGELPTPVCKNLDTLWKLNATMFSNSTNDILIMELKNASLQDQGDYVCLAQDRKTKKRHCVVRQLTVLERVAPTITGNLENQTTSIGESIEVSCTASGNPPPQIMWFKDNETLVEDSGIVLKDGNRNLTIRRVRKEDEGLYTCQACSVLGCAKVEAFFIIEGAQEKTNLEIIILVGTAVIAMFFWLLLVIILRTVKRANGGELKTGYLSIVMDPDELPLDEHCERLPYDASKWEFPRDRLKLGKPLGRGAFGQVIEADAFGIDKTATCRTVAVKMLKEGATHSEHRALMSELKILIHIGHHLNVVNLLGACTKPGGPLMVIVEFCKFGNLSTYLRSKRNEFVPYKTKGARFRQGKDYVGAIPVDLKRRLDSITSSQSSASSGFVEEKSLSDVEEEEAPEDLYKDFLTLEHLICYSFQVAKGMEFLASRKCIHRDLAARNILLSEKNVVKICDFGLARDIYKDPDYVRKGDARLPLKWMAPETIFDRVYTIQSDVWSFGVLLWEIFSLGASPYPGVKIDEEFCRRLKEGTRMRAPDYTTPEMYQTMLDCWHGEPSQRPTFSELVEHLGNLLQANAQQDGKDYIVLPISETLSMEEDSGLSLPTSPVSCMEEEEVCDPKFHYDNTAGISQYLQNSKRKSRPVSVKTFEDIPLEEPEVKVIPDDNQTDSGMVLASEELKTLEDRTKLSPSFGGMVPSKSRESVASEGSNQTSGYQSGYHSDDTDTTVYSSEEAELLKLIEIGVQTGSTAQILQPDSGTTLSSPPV
Chain of Proto-oncogene tyrosine-protein kinase Src (P12931 2-536 limits assumed): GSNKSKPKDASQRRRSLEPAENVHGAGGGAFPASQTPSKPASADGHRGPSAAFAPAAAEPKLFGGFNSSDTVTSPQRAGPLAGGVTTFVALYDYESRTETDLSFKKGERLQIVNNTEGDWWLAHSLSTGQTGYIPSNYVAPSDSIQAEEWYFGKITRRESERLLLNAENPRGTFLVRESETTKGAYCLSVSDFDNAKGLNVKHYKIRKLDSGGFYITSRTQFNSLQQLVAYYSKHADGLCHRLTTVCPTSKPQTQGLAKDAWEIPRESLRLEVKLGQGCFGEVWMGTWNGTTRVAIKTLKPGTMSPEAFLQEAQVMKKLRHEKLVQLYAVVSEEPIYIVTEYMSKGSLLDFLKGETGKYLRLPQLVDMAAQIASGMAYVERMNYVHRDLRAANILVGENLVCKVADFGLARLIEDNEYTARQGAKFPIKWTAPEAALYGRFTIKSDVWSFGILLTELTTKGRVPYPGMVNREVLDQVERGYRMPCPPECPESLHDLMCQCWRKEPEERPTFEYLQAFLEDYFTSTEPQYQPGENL

## O=C1CCC(=O)N1n1c(COc2ccccc2)nc2ccc(I)cc2c1=O
MCF7 [1]
  IC50: 5490 nM

## O=c1[nH]c(-c2ccc3ccccc3c2)nc2ccc(N3CCCC3)cc12
[2]
  IC50: 40 nM
M21
  IC50: 30 nM
[3]
  IC50: 1350 nM
[4]
  IC50: 80 nM
[5]
  IC50: 50 nM

## Cc1ncc([N+](=O)[O-])n1CCOc1ncnc2ccccc12
MCF7 [6]
  IC50: 350 nM
[7]
  IC50: 2.72 nM

## NNC(=O)c1ccncc1 [ISONIAZID]
[8]
  growth inhibition (GI): 99%

## COc1cc2ncnc(Nc3cccc(Br)c3)c2cc1OC
[9]
  IC50: 8300 nM

## Cc1nc2c(I)cc(I)cc2c(=O)n1-c1ccc(S(=O)(=O)Nc2ncccn2)cc1
Staphylococcus aureus
  inhibition of growth at 100 µg/mL: 61.9%
[10]
  inhibition of growth at 100 µg/mL: 61.9%
Escherichia coli
  inhibition of growth at 100 µg/mL: 61.9%
Pseudomonas aeruginosa
  inhibition of growth at 100 µg/mL: 61.9%

## COc1cc2nccc(Oc3ccc(NC(=O)Nc4cc(C)on4)c(Cl)c3)c2cc1OC [TIVOZANIB]
MCF7 [6]
  IC50: 380 nM

## CSc1nc2nc(Cl)c3ccccc3n2n1
RAW264.7
  inhibition at 20 µg/mL: 50%

## COc1cc2ncnc(Nc3ccc(NC(=O)c4cccc(O)c4)cc3)c2cc1OC
[11]
  IC50: 74000 nM

## CC(=O)NS(=O)(=O)c1ccc(-n2c(C)nc3c(I)cc(I)cc3c2=O)cc1
Rattus norvegicus
  Activity: 74%

## N#Cc1c(F)c(F)c2nc(-c3ccc(C(F)(F)F)cc3)nc(N)c2c1F
MCF7 [12]
  Ratio IC50: <=40

## CSc1nc2n(n1)c1ccccc1c1nnc(-c3ccncc3)n12
HepG2
  IC50: 9.34 µg/mL (≈ 28 µM)
[13]
  IC50: 11.5 µg/mL (≈ 34.5 µM)

## CCn1c(=O)c2ccccc2n2nc(SC)nc12
RAW264.7
  inhibition at 20 µg/mL: 50%

## CCOc1nc2nc(SC)nn2c2ccccc12
HepG2
  IC50: 19.2 µg/mL (≈ 73.8 µM)
[13]
  IC50: 17.4 µg/mL (≈ 66.8 µM)

## COc1cc2c(=O)n(-c3ccccc3Cl)c(=O)[nH]c2cc1NC(=O)NCCc1ccccc1Cl
[14]
  GI50: 363 nM

## COc1cc2ncnc(NCCc3ccccc3F)c2c(OC)c1OC
[15]
  inhibition at 10 µM: 88.2%
[9]
  IC50: 6200 nM
Bcap37 [16]
  IC50: 3100 nM
PC-3 [17]
  Activity: 11.6%
Bcap37 [18]
  inhibition at 10 µM: 90.4%
PC-3 [19]
  Activity: 31.8%
[20]
  IC50: 3200 nM
[21]
  inhibition at 10 µM: 90.6%

## O=C(Cc1cccc(Br)c1)Nc1ccc2ncnc(Nc3ccc(Br)cc3)c2c1
A549
  IC50: 3420 nM
[22]
  IC50: 27.3 nM

## COc1cccc2c1C(=O)c1c(O)c3c(c(O)c1C2=O)C[C@@](O)(C(=O)CO)C[C@@H]3O[C@H]1C[C@H](N)[C@H](O)[C@H](C)O1 [DOXORUBICIN]
MCF7 [1]
  IC50: 5490 nM

## Nc1nnc2c3ccccc3nc(-c3ccccc3Br)n12
[23]
  selectivity ratio: 5.8

## COc1cc2c(=O)n(-c3ccccc3)c(=O)[nH]c2cc1NC(=O)NCCc1ccccc1Cl
[14]
  GI50: 794 nM

## CO[C@H]1/C=C/O[C@@]2(C)Oc3c(C)c(O)c4c(O)c(c(/C=N/N5CCN(C)CC5)c(O)c4c3C2=O)NC(=O)/C(C)=C\C=C\[C@H](C)[C@H](O)[C@@H](C)[C@@H](O)[C@@H](C)[C@H](OC(C)=O)[C@@H]1C [RIFAMPIN]
[8]
  growth inhibition (GI): 99%

## Cc1noc(NS(=O)(=O)c2ccc(-n3c(C)nc4c(I)cc(I)cc4c3=O)cc2)c1C
Staphylococcus aureus
  inhibition of growth at 100 µg/mL: 61.9%
[10]
  inhibition of growth at 100 µg/mL: 61.9%
Escherichia coli
  inhibition of growth at 100 µg/mL: 61.9%
Pseudomonas aeruginosa
  inhibition of growth at 100 µg/mL: 61.9%

## O=c1c2ccc(Cl)cc2nc(-c2ccccc2)n1/N=C/c1ccc(Cl)cc1
SNB-75
  GI50: 2570 nM
SNB-75; read-out: pLC50 (the source's name) (converted)
  CC50: 39800 nM
SNB-75; read-out: pTGI (converted)
  TGI: 7590 nM

## O=c1c2cc(-c3c(Cl)cccc3Cl)ccc2nc(C2CC2)n1Cc1cccnc1
[24]
  IC50: < 10000 nM

## O=c1c2cc(Br)cc(Br)c2nc(-c2ccccc2)n1-c1ccc(C2=NN(c3ccccc3)C(Cc3ccccc3)C2)cc1 (centres undefined)
MCF7 [6]
  IC50: 1.7 µg/mL

## O=C(Nc1ccc(Nc2ccc([N+](=O)[O-])c3ncnc(O)c23)cc1)Nc1ccc(C(F)(F)F)cc1Cl
[7]
  IC50: 12 nM

## COc1ccc2nc(-c3ccc4ccccc4c3)[nH]c(=O)c2c1
[2]
  IC50: 150 nM
M21
  IC50: 90 nM
[3]
  IC50: 1940 nM
[4]
  IC50: 70 nM
[5]
  IC50: 90 nM

Source: ChEMBL document CHEMBL3351697, “Recent advances in the structural library of functionalized quinazoline and quinazolinone scaffolds: synthetic approaches and multifarious applications” (Eur J Med Chem, 2014)
